In this experiment the target is T1, TRPC5 (Homo sapiens, UniProt Q9UL62).
T1 construct: expressed in transfected cells; host or cells: HEK293 TREx (inducible expression, induced 20-48 hours)
T1 sequence (Q9UL62 1-973): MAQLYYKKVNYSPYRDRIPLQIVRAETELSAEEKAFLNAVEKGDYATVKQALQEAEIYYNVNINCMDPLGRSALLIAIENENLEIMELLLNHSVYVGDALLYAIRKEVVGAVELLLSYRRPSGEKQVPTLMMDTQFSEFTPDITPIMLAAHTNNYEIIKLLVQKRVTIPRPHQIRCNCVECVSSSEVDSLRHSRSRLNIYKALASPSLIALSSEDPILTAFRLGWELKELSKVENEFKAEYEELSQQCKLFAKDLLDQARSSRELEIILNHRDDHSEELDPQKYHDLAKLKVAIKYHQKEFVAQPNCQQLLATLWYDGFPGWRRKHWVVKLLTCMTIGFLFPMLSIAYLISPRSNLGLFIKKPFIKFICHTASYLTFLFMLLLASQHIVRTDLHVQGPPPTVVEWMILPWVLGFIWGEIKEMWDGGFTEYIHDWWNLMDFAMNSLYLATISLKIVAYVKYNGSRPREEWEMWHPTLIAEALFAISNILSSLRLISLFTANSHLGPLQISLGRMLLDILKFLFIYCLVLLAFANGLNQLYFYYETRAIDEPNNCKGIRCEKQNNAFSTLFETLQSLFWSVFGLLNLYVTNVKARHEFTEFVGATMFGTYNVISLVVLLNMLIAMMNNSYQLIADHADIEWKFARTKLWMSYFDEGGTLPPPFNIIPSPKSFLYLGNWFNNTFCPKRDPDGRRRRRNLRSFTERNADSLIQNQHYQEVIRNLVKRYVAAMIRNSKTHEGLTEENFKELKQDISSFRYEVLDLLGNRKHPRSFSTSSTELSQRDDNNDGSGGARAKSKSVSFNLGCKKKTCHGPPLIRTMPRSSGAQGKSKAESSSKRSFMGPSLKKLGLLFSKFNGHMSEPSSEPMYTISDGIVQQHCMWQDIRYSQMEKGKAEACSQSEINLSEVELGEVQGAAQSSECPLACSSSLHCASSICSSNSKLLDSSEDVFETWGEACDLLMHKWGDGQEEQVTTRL
The experiment in a line: Assay A: Determination of TRPC5-Inhibition (whole-cell patch clamp). It counts as cell-based. The following applies: compounds of the present invention, TRPC5-expressing HEK293 TREx cells, current activated by LaCl3. An excerpt: Assay A: Determination of TRPC5-Inhibition
Patch clamp experiments permit the detection of currents through the TRPC5 channel in a cell line. In normal whole-cell patch clamp recordings, a glass electrode is brought into contact with a single cell and a high-resistance (gigaohm) seal is established with the cell membrane. The membrane is then ruptured to achieve the whole-cell configuration, permitting control of the voltage of the cell membrane and measurement of currents flowing across the membrane using the amplifier attached to the electrode and resulting in the replacement of cytoplasm with the pipette solution. A perfusion system permits control of the extracellular solution, including the addition of blockers and activators of the current. The current can be activated by including 1.4 μM free Ca2+ in the pipette (intracellular) solution, and 80 μM LaCl3 in the extracellular solution.
TRPC5 cells were induced 20-48 hours, removed from growth plates, and replated at low density (to attain good single-cell physical separation) on glass coverslips for measurement. In some cases, cells were grown in low density overnight on glass coverslips. Patch clamp recordings were made in the whole-cell mode with a holding potential of −40 mV. Every 5 seconds, a voltage ramp was applied from −120 to +100 mV, 400 ms in duration. Currents elicited were quantified at −80 mV and +80 mV. The internal solution consisted of 140 mM cesium aspartate, 10 mM HEDTA, 2 mM CaCl2, 2.27 mM MgCl2 and 10 mM HEPES, pH 7.2, with 1,400 nM calculated free Ca2+. The external solution consisted of 150 mM NaCl, 4.5 mM 15 KCl, 1 mM MgCl2, 2 mM CaCl2, 10 mM HEPES, 10 mM glucose, 1 mM EGTA, pH 7.4. Upon addition of LaCl3, TRPC5 current was induced only in TRPC5-expressing cells and not in parental HEK293 TREx cells. Removal of the LaCh stimulus causes most of the current to go away. Potential blockers were tested for ability to block both inward and outward currents in the continued presence of LaCl3.
IC50 of a compound of the invention was estimated by testing the compound 500 nM. […] Compounds blocking 50% or more at 500 nM are retested at multiple concentrations, and the % block is fitted by standard equations to determine […] accurately, using a […] concentration-response experiment.
In general terms: In patch-clamp work, channel activity is measured electrically.

SMILES strings stand for the structures.

Our source for the IC50 values is patent US12291532B2, “Substituted xanthines as modulators of TRPC5 activity” (Boehringer Ingelheim International GmbH, priority 2018, dated 2025).

In the case of `CCn1c(=O)n(CCCO)c(=O)c2c1nc(-c1ncc(OC3CCC3C)nc1C)n2Cc1ccc(F)cc1` (stereo not drawn) [Example 5], the half-inhibitory concentration (IC50) (commonly the point on the concentration scale where inhibition reaches its midpoint) was 0.29 nM. This lies in the sub-nanomolar range.

`CCn1c(=O)n(CCCO)c(=O)c2c1nc(-c1cnc(OC3CCC3)cn1)n2Cc1ccccc1` [Example 4] came in with an IC50 of 1.11 nM.

Consider `CCn1c(=O)n(CCCO)c(=O)c2c1nc(-c1ncc(OC3CCC3)nc1C)n2Cc1ccccc1` [Example 6], for which the IC50 is 1.22 nM.

`Cc1nc(OC2CCC2)cnc1-c1nc2c(c(=O)n(CCCO)c(=O)n2C(C)C)n1Cc1ccccc1` [Example 2] returned a half-maximal inhibitory concentration (IC50) of 0.207 nM. Against the preceding compound, the IC50 is about 5.9-fold lower.

With `CCn1c(=O)n(CCCO)c(=O)c2c1nc(-c1cnc(OC3CCC3)cn1)n2Cc1ccc(F)cc1` [Example 3], inhibition was half-maximal at 0.506 nM (IC50).

Take `CCn1c(=O)n(CCCO)c(=O)c2c1nc(-c1ncc(OC3CCC3C)nc1C)n2Cc1ccc(Cl)cc1` (stereo not drawn) [Example 1]: the IC50 is 0.172 nM. This IC50 lies about 2.9-fold lower than the previous one.
